Experimental data from ChEMBL document CHEMBL1201861, “Genomics of Drug Sensitity in Cancer screening data, Wellcome Trust Sanger Institute”.

Key:
Assay in all cases: cells
Settings in all cases: Homo sapiens
[1] = tested on: UACC-62; type: functional, cell-based;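 also: growth inhibition of human UACC-62 cells, read out by a cell viability assay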
Description: SANGER: Inhibition of human UACC-62 cell growth in a cell viability assay.

[2] = tested on: ME-180; type: functional, cell-based;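 also: cell viability assay measuring growth inhibition of ME-180 cells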
Description: SANGER: Inhibition of human ME-180 cell growth in a cell viability assay.

[3] = tested on: G-401; type: functional, cell-based
Description: SANGER: Inhibition of human G-401 cell growth in a cell viability assay.

[4] = tested on: UMUC3; type: functional, cell-based;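 also: growth inhibition of human UM-UC-3 cells, read out with a cell viability assay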
Description: SANGER: Inhibition of human UM-UC-3 cell growth in a cell viability assay.

[5] = tested on: DU-145; type: functional, cell-based
Description: SANGER: Inhibition of human DU-145 cell growth in a cell viability assay.

[6] = tested on: YKG-1; type: functional, cell-based;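 also: cell growth inhibition, read out with a viability assay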
Description: SANGER: Inhibition of human YKG-1 cell growth in a cell viability assay.

[7] = tested on: HCT-116; type: functional, cell-based
Description: SANGER: Inhibition of human HCT-116 cell growth in a cell viability assay.

[8] = tested on: EFM-19; type: functional, cell-based;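 also: growth inhibition of human EFM-19 cells, measured in a cell viability assay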
Description: SANGER: Inhibition of human EFM-19 cell growth in a cell viability assay.

[9] = tested on: SCC-9; type: functional, cell-based;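 also: Read-out is a cell viability assay, with values giving inhibition of cell growth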
Description: SANGER: Inhibition of human SCC-9 cell growth in a cell viability assay.

[10] = tested on: HOP-92; type: functional, cell-based;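 also: cell viability readout, with IC50 reflecting inhibition of HOP-92 cell growth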
Description: SANGER: Inhibition of human HOP-92 cell growth in a cell viability assay.

[11] = tested on: SW626; type: functional, cell-based;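 also: growth inhibition of SW626 cells, measured with a cell viability assay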
Description: SANGER: Inhibition of human SW626 cell growth in a cell viability assay.

[12] = tested on: MEL-HO; type: functional, cell-based
Description: SANGER: Inhibition of human MEL-HO cell growth in a cell viability assay.

[13] = tested on: KYSE-410; type: functional, cell-based;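 also: growth inhibition of KYSE-410 cells, measured through a cell viability readout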
Description: SANGER: Inhibition of human KYSE-410 cell growth in a cell viability assay.

[14] = tested on: GCT; type: functional, cell-based;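 also: GCT cell line proliferation inhibition, read out with a cell viability assay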
Description: SANGER: Inhibition of human GCT cell growth in a cell viability assay.

[15] = tested on: ChaGo-K-1; type: functional, cell-based;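 also: growth inhibition of ChaGo-K-1 cells, read out with a cell viability assay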
Description: SANGER: Inhibition of human ChaGo-K-1 cell growth in a cell viability assay.

[16] = tested on: HuO-3N1; type: functional, cell-based;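 also: cell viability readout used to measure how strongly compounds suppress proliferation of human HuO-3N1 cells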
Description: SANGER: Inhibition of human HuO-3N1 cell growth in a cell viability assay.

[17] = tested on: HCT-15; type: functional, cell-based;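 also: cell viability readout, IC50 reflecting suppression of HCT-15 cell growth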
Description: SANGER: Inhibition of human HCT-15 cell growth in a cell viability assay.

[18] = tested on: MKN-1; type: functional, cell-based;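 also: growth inhibition of human MKN1 cells, read out by a cell viability measurement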
Description: SANGER: Inhibition of human MKN1 cell growth in a cell viability assay.

[19] = tested on: PANC-08-13; type: functional, cell-based;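 also: cell growth inhibition, measured with a cell viability assay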
Description: SANGER: Inhibition of human PANC-08-13 cell growth in a cell viability assay.

[20] = tested on: MDA-MB-361; type: functional, cell-based
[21] = tested on: SK-MEL-28; type: functional, cell-based;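 also: growth inhibition of human SK-MEL-28 cells, read out with a cell viability assay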
Description: SANGER: Inhibition of human SK-MEL-28 cell growth in a cell viability assay.

[22] = tested on: SW780; type: functional, cell-based;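 also: growth inhibition of the cells, read out with a cell viability assay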
Description: SANGER: Inhibition of human SW780 cell growth in a cell viability assay.

[23] = tested on: RO82-W-1; type: functional, cell-based;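 also: growth inhibition of human RO82-W-1 cells, measured with a cell viability assay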
Description: SANGER: Inhibition of human RO82-W-1 cell growth in a cell viability assay.

[24] = tested on: U2OS; type: functional, cell-based, U-2-OS;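 also: growth inhibition of human U-2-OS cells, determined with a cell viability assay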
Description: SANGER: Inhibition of human U-2-OS cell growth in a cell viability assay.

[25] = tested on: NCI-H2342; type: functional, cell-based;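 also: growth inhibition of the cancer cell line, determined with a cell viability assay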
Description: SANGER: Inhibition of human NCI-H2342 cell growth in a cell viability assay.

[26] = tested on: SW837; type: functional, cell-based;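 also: growth inhibition of SW837 cells, determined with a cell viability assay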
Description: SANGER: Inhibition of human SW837 cell growth in a cell viability assay.

[27] = tested on: H4; type: functional, cell-based
Description: SANGER: Inhibition of human H4 cell growth in a cell viability assay.

[28] = tested on: GMS-10; type: functional, cell-based;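 also: growth inhibition of GMS-10 cells, read out as cell viability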
Description: SANGER: Inhibition of human GMS-10 cell growth in a cell viability assay.

[29] = tested on: SW1088; type: functional, cell-based;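 also: growth inhibition of human SW1088 cells, read out by a cell viability assay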
Description: SANGER: Inhibition of human SW1088 cell growth in a cell viability assay.

[30] = tested on: NCI-H810; type: functional, cell-based;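 also: IC50 reflects inhibition of cancer cell line growth, read out with a cell viability assay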
Description: SANGER: Inhibition of human NCI-H810 cell growth in a cell viability assay.

[31] = tested on: RT-112; type: functional, cell-based
Description: SANGER: Inhibition of human RT-112 cell growth in a cell viability assay.

[32] = tested on: HCC1419; type: functional, cell-based;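 also: growth inhibition of human HCC1419 cells, read out as cell viability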
Description: SANGER: Inhibition of human HCC1419 cell growth in a cell viability assay.

[33] = tested on: NCI-H2052; type: functional, cell-based;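 also: growth inhibition of NCI-H2052 cells, read out with a cell viability assay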
Description: SANGER: Inhibition of human NCI-H2052 cell growth in a cell viability assay.

[34] = tested on: EFO-27; type: functional, cell-based;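 also: growth inhibition of EFO-27 cells, read out with a cell viability assay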
Description: SANGER: Inhibition of human EFO-27 cell growth in a cell viability assay.

[35] = tested on: SW756; type: functional, cell-based;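 also: growth inhibition of human SW756 cells, read out with a cell viability assay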
Description: SANGER: Inhibition of human SW756 cell growth in a cell viability assay.

[36] = tested on: NCI-H292; type: functional, cell-based;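 also: growth inhibition of NCI-H292 cells, read out with a cell viability assay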
Description: SANGER: Inhibition of human NCI-H292 cell growth in a cell viability assay.

[37] = tested on: SW48; type: functional, cell-based;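 also: growth inhibition of SW48 cells, read out with a cell viability assay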
Description: SANGER: Inhibition of human SW48 cell growth in a cell viability assay.

[38] = tested on: CAL-27; type: functional, cell-based;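 also: Viability-based readout, IC50 reflecting inhibition of CAL-27 cell growth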
Description: SANGER: Inhibition of human CAL-27 cell growth in a cell viability assay.

[39] = tested on: NCI-H28; type: functional, cell-based;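 also: growth inhibition of human NCI-H28 cells, read out as cell viability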
Description: SANGER: Inhibition of human NCI-H28 cell growth in a cell viability assay.

[40] = tested on: 8505C; type: functional, cell-based
Description: SANGER: Inhibition of human 8505C cell growth in a cell viability assay.

[41] = tested on: HT-3; type: functional, cell-based;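 also: growth inhibition measured with a cell viability readout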
Description: SANGER: Inhibition of human HT-3 cell growth in a cell viability assay.

[42] = tested on: BPH-1; type: functional, cell-based;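 also: cell viability assay measuring growth inhibition of human BPH-1 cells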
Description: SANGER: Inhibition of human BPH-1 cell growth in a cell viability assay.

[43] = tested on: COR-L23; type: functional, cell-based;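 also: cell viability assay measuring how strongly compounds suppress growth of COR-L23 cells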
Description: SANGER: Inhibition of human COR-L23 cell growth in a cell viability assay.

[44] = tested on: SF-295; type: functional, cell-based;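 also: growth inhibition of SF-295 cells, read out with a cell viability assay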
Description: SANGER: Inhibition of human SF295 cell growth in a cell viability assay.

[45] = tested on: SK-MEL3; type: functional, cell-based, SK-MEL-3;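 also: growth inhibition of human SK-MEL-3 cells, read out with a cell viability assay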
Description: SANGER: Inhibition of human SK-MEL-3 cell growth in a cell viability assay.

## NC(=O)c1ncn([C@@H]2O[C@H](COP(=O)(O)O)[C@@H](O)[C@H]2O)c1N
[1]
  IC50: > 2000 µM
[2]
  IC50: 416 µM
[3]
  IC50: > 2000 µM
[4]
  IC50: 1750 µM
[5]
  IC50: > 2000 µM
[6]
  IC50: 552 µM
[7]
  IC50: 424 µM
[8]
  IC50: 343 µM
[9]
  IC50: > 2000 µM
[10]
  IC50: 1690 µM
[11]
  IC50: > 2000 µM
[12]
  IC50: 397 µM
[13]
  IC50: > 2000 µM
[14]
  IC50: 1390 µM
[15]
  IC50: 1380 µM
[16]
  IC50: 89.4 µM
[17]
  IC50: 1890 µM
[18]
  IC50: > 2000 µM
[19]
  IC50: 1300 µM
[20]
  IC50: 1310 µM
[21]
  IC50: > 2000 µM
[22]
  IC50: > 2000 µM
[23]
  IC50: > 2000 µM
[24]
  IC50: > 2000 µM
[25]
  IC50: > 2000 µM
[26]
  IC50: > 2000 µM
[27]
  IC50: > 2000 µM
[28]
  IC50: 663 µM
[29]
  IC50: > 2000 µM
[30]
  IC50: > 2000 µM
[31]
  IC50: 1870 µM
[32]
  IC50: > 2000 µM
[33]
  IC50: 1490 µM
[34]
  IC50: 1680 µM
[35]
  IC50: > 2000 µM
[36]
  IC50: > 2000 µM
[37]
  IC50: 932 µM
[38]
  IC50: > 2000 µM
[39]
  IC50: 1040 µM
[40]
  IC50: > 2000 µM
[41]
  IC50: 472 µM
[42]
  IC50: 1560 µM
[43]
  IC50: 728 µM

## COc1cc(Nc2c(C#N)cnc3cc(OCCCN4CCN(C)CC4)c(OC)cc23)c(Cl)cc1Cl [BOSUTINIB]
[1]
  IC50: > 2 µM
[2]
  IC50: > 2 µM
[3]
  IC50: > 2 µM
[4]
  IC50: > 2 µM
[5]
  IC50: > 2 µM
[6]
  IC50: > 2 µM
[7]
  IC50: > 2 µM
[8]
  IC50: > 2 µM
[9]
  IC50: > 2 µM
[10]
  IC50: > 2 µM
[11]
  IC50: > 2 µM
[12]
  IC50: > 2 µM
[13]
  IC50: > 2 µM
[44]
  IC50: > 2 µM
[14]
  IC50: > 2 µM
[15]
  IC50: > 2 µM
[16]
  IC50: > 2 µM
[17]
  IC50: > 2 µM
[18]
  IC50: > 2 µM
[19]
  IC50: > 2 µM
[20]
  IC50: > 2 µM
[21]
  IC50: > 2 µM
[22]
  IC50: > 2 µM
[23]
  IC50: > 2 µM
[24]
  IC50: > 2 µM
[25]
  IC50: > 2 µM
[26]
  IC50: > 2 µM
[27]
  IC50: 1.24 µM
[28]
  IC50: > 2 µM
[29]
  IC50: > 2 µM
[30]
  IC50: > 2 µM
[31]
  IC50: > 2 µM
[32]
  IC50: > 2 µM
[33]
  IC50: > 2 µM
[34]
  IC50: 1.69 µM
[35]
  IC50: 0.14 µM
[36]
  IC50: 0.441 µM
[45]
  IC50: > 2 µM
[37]
  IC50: > 2 µM
[38]
  IC50: 0.929 µM
[39]
  IC50: > 2 µM
[40]
  IC50: > 2 µM
[41]
  IC50: > 2 µM
[42]
  IC50: 1.45 µM
[43]
  IC50: > 2 µM
